The values below come from patent publication US20030224416A1, “Schizophrenia related gene” (priority 2002, published 2003).

The test system of one assay is Kv3.1 mRNA. The assay is described as follows: Experiment 2: in situ hybridisation of Kv3.1 mRNA in rat brain after chronic intermittent PCP (YRING model). The class given is in vivo. The procedure: (§1) In a second experiment using different method for in situ hybridisation, the effect of chronic PCP treatment on Kv3.1, Kv3.2 and Kv3.3 mRNA were examined. […] Animals were treated according to the YRING model (FIG. 1) and killed by cervical dislocation 72 hours after the last exposure to PCP. The brains were stored at −70° C. until required.
(§2) 20 μm coronal sections were cut on a cryostat at −20° C. and collected onto poly-L-lysine coated slides. The sections were fixed, dehydrated and stored under ethanol at 4° C. until required. […] On the day of in situ hybridization, the sections from the chronic study were allowed to dry at room temperature then hybridized with the appropriate probe overnight at 42° C. The sections were then washed, dehydrated and air-dried before being exposed to x-ray film for 7-10 days.
(§3) The quantification of mRNA expression was carried out using computer-based densitometry (MCID 5). Bilateral relative optical density measurements were taken from duplicate sections from each animal (n=8-10 per treatment group for the chronic study). The results were analyzed using individual t-tests for each brain region. Statistical significance was defined as p<0.05, again after correction for multiple comparisons using the sequential Bonferroni correction factor.

In another assay the test system is Kv3.3 mRNA. Description: Experiment 2: in situ hybridisation of Kv3.3 mRNA in rat brain after chronic intermittent PCP (YRING model). The class given is in vivo. The procedure:
as §1, §2, §3

A further assay deals with Kv3.2 mRNA. Description: Experiment 2: in situ hybridisation of Kv3.2 mRNA in rat brain after chronic intermittent PCP (YRING model). The class given is in vivo. As to the method:
as §1, §2, §3

For another assay, the system named is Kv3.1 α-subunit mRNA. The assay is described as follows: Experiment 1: in situ hybridization of Kv3.1 α-subunit mRNA in brain, chronic PCP rat model of schizophrenia with antipsychotic co-treatment. It is filed as in vivo. To be noted: for Kv3.1 α-subunit mRNA expression: PCP-Veh (PCP 2.24 mg/kg i.p.).
A further assay deals with schizophrenia. To be noted: patients; cited from earlier work.
[1] abbreviates: ventral part of the reticular thalamic nucleus.

SMILES strings stand for the structures.

As to `c1ccc(C2(N3CCCCC3)CCCCC2)cc1` [PCP, phencyclidine], the “change in Kv3.1 mRNA expression after chronic intermittent PCP” value in the assay with Kv3.1 mRNA (prelimbic cortex) was −23%; with Kv3.1 mRNA (setting [1]), −19%. In addition, the “Kv3.1 mRNA expression change after chronic intermittent PCP” value with Kv3.1 mRNA (regions other than prelimbic cortex and vRt) is “No other changes were observed in any other regions”. Moreover, the “change in Kv3.3 mRNA expression after chronic intermittent PCP” value in the assay on Kv3.3 mRNA (anterodorsal thalamic nucleus) was “+21%”; with Kv3.3 mRNA (prelimbic cortex), “+18%”; with Kv3.3 mRNA (ventral orbital cortex), “+14%”; with Kv3.3 mRNA (setting [1]), “+33%”. Also, in the assay on Kv3.3 mRNA (regions other than prelimbic, ventral orbital cortex, AD, vRt), the “Kv3.3 mRNA expression change after chronic intermittent PCP” value is reported as “No other changes were observed in any other regions”. Further, the “change in Kv3.2 mRNA expression after chronic intermittent PCP” value is listed as −9% in the assay with Kv3.2 mRNA (anteromedial thalamic nucleus), “+16%” in the assay on Kv3.2 mRNA (prelimbic cortex) and “+13%” in the assay on Kv3.2 mRNA (primary motor cortex). For the same compound, the “Kv3.2 mRNA expression change after chronic intermittent PCP” value with Kv3.2 mRNA (regions other than prelimbic cortex, primary motor cortex, anteromedial thalamic nucleus) is “No significant changes were observed”. Besides, the “Kv3.1 α-subunit mRNA expression” value in the assay on Kv3.1 α-subunit mRNA (ACg) is given as 15.01 PSL/mm^2; with Kv3.1 α-subunit mRNA (AcbC), 8.48 PSL/mm^2; in the assay on Kv3.1 α-subunit mRNA (AcbS), 10.62 PSL/mm^2; with Kv3.1 α-subunit mRNA (Au1), 18.08 PSL/mm^2; with Kv3.1 α-subunit mRNA (CA1pd), 15.90 PSL/mm^2; with Kv3.1 α-subunit mRNA (CA2pd), 18.61 PSL/mm^2. Moreover, the “Kv3.1 α-subunit mRNA expression” value turned out to be 32.94 PSL/mm^2 with Kv3.1 α-subunit mRNA (CA3pd); 38.63 PSL/mm^2 with Kv3.1 α-subunit mRNA (DGgd); 5.87 PSL/mm^2 in the assay on Kv3.1 α-subunit mRNA (DLStr); 12.28 PSL/mm^2 in the assay on Kv3.1 α-subunit mRNA (IL); 16.48 PSL/mm^2 in the assay on Kv3.1 α-subunit mRNA (IO); 15.88 PSL/mm^2 with Kv3.1 α-subunit mRNA (M1). In addition, the “Kv3.1 α-subunit mRNA expression” value with Kv3.1 α-subunit mRNA (M2) is given as 14.38 PSL/mm^2; with Kv3.1 α-subunit mRNA (MG) it was 26.93 PSL/mm^2; in the assay on Kv3.1 α-subunit mRNA (MM), 24.34 PSL/mm^2; in the assay with Kv3.1 α-subunit mRNA (Pir), 40.65 PSL/mm^2; with Kv3.1 α-subunit mRNA (PrL) it was 9.83 PSL/mm^2; in the assay with Kv3.1 α-subunit mRNA (RSa) it was 17.96 PSL/mm^2. In addition, the “Kv3.1 α-subunit mRNA expression” value was 20.38 PSL/mm^2 in the assay with Kv3.1 α-subunit mRNA (RSg); 12.82 PSL/mm^2 with Kv3.1 α-subunit mRNA (SN); 6.15 PSL/mm^2 in the assay with Kv3.1 α-subunit mRNA (VMStr); 19.85 PSL/mm^2 in the assay with Kv3.1 α-subunit mRNA (VO); 48.80 PSL/mm^2 in the assay on Kv3.1 α-subunit mRNA (dRt); 45.07 PSL/mm^2 in the assay on Kv3.1 α-subunit mRNA (vRt). The “change in Kv3.1 α-subunit mRNA expression after chronic PCP treatment” value was −15% in the assay with Kv3.1 α-subunit mRNA (dorsal part of the reticular nucleus of the thalamus (dRt)), −16% in the assay with Kv3.1 α-subunit mRNA (dorsolateral striatum (DLStr)) and −31% in the assay with Kv3.1 α-subunit mRNA (prelimbic region of the prefrontal cortex (PrL)).
For `O=C(CCCN1CCC(O)(c2ccc(Cl)cc2)CC1)c1ccc(F)cc1` [haloperidol], in the assay with schizophrenia, the “action against the negative symptoms and cognitive dysfunction of schizophrenia” value is reported as “ineffective”; the “attenuating the positive symptoms of schizophrenia” value is reported as “effective”.
